# Test results reported in patent US5120841A, “Cephalosporin ester derivatives” (Takeda Chemical Industries, Ltd., priority 1983, dated 1992).
# Counter-ions that a name gives are not always drawn.
# Key:
# [1] = oral administration to mice: plasma level of non-ester compound (compound [II]), AUC and bioavailability; type: in vivo; conditions: compound [II] in plasma, 100 mg/kg (in terms of compound [II]), zero to 2 hours
# proteus morganii = conditions: gram-negative bacteria, Antimicrobial Agent and Chemotherapy 14, 557-568 (1978); cited from earlier work
# Escherichia coli = conditions: gram-negative bacteria, Antimicrobial Agent and Chemotherapy 14, 557-568 (1978); cited from earlier work
# Klebsiella pneumoniae = conditions: gram-negative bacteria, Antimicrobial Agent and Chemotherapy 14, 557-568 (1978); cited from earlier work
# [2] = mouse, in vivo, sc, 120 min
# Experimental: At 0.25, 0.5, 1.0 and 2.0 hours after administration, the concentration of compound [II] in plasma of the mouse is measured by the cup method using Proteus mirabilis Eb 313 as the test organism and the area under plasma concentration-time curve from zero to 2 hours (AUC) is calculated.
# The compound [II ] was subcutaneously applied and AUC was calculated in the same manner as above.
# Proteus mirabilis = conditions: gram-negative bacteria, Antimicrobial Agent and Chemotherapy 14, 557-568 (1978); cited from earlier work
# Staphylococcus aureus = conditions: gram-positive bacteria, Antimicrobial Agent and Chemotherapy 14, 557-568 (1978); cited from earlier work
# Proteus vulgaris = conditions: gram-negative bacteria, Antimicrobial Agent and Chemotherapy 14, 557-568 (1978); cited from earlier work
Compound,AUC [1] [ng·h/mL],also measured
"CCOC(=O)OC(C)OC(=O)C1=C(CSc2nnnn2CCN(C)C)CS[C@@H]2[C@H](NC(=O)Cc3csc(N)n3)C(=O)N12 (stereo partly drawn) [A, 1-(ethoxycarbonyloxy)ethyl 78-[2-(2-aminothiazol-4-yl)acetamido]-3-[[[1-(2-dimethylaminoethyl)-1H-tetrazol-5-yl]-thio]methyl]ceph-3-em-4-carboxylate, reference compound]",9280,–
"CN(C)CCn1nnnc1SCC1=C(C(=O)OCOC(=O)OC2CCCCC2)N2C(=O)[C@@H](NC(=O)Cc3csc(N)n3)[C@H]2SC1 [Example 1-1, Cyclohexyloxycarbonyloxy 7β-[2-Aminothiazol-4-yl)Acetamido]-3-[[[1-(2-Dimethylaminoethyl)-1H-Tetrazol-5-yl]Thio]Methyl]Ceph-3-Em-4-Carboxylate Dihydrochloride]",30000,–
CN(C)CCn1nnnc1SCC1=C(C(=O)OCOC(=O)OC2CCCCCCCCCCC2)N2C(=O)[C@@H](NC(=O)Cc3csc(N)n3)[C@H]2SC1 [Example 1-5],33100,–
CC(C)[C@@H]1CC[C@@H](C)C[C@H]1OC(=O)OCOC(=O)C1=C(CSc2nnnn2CCN(C)C)CS[C@@H]2[C@H](NC(=O)Cc3csc(N)n3)C(=O)N12 [Example 1-6],29400,–
"CC(OC(=O)OC1CCCCC1)OC(=O)C1=C(CSc2nnnn2CCN(C)C)CS[C@@H]2[C@H](NC(=O)Cc3csc(N)n3)C(=O)N12.Cl.Cl (stereo partly drawn) [Example 2-1, 1-(Cyclohexyloxycarbonyloxy)ethyl 7β-[2-(2-aminothiazol-4-yl)acetamido]-3-[[[1-(2-dimethylaminoethyl)-1H-tetrazol-5-yl]thio]methyl]ceph-3-em-4-carboxylate dihydrochloride]",30000,–
CC1CCCC(OC(=O)OC(C)OC(=O)C2=C(CSc3nnnn3CCN(C)C)CS[C@@H]3[C@H](NC(=O)Cc4csc(N)n4)C(=O)N23)C1 (stereo partly drawn) [Example 2-10],30100,–
CC(OC(=O)OC1CCCCC1C)OC(=O)C1=C(CSc2nnnn2CCN(C)C)CS[C@@H]2[C@H](NC(=O)Cc3csc(N)n3)C(=O)N12 (stereo partly drawn) [Example 2-11],35400,–
CC(OC(=O)OC1CCCCC1C)OC(=O)C1=C(CSc2nnnn2CCN(C)C)CSC2C(NC(=O)Cc3csc(N)n3)C(=O)N12 (stereo not drawn) [Example 2-12],–,AUC ([1]; 100 mg/kg): 35500 ng·h/mL
CC(OC(=O)OC1CCCCC1C)OC(=O)C1=C(CSc2nnnn2CCN(C)C)CSC2C(NC(=O)Cc3csc(N)n3)C(=O)N12 (stereo not drawn) [Example 2-13],–,AUC ([1]; 100 mg/kg): 36100 ng·h/mL
CCC(OC(=O)OC1CCCCC1)OC(=O)C1=C(CSc2nnnn2CCN(C)C)CS[C@@H]2[C@H](NC(=O)Cc3csc(N)n3)C(=O)N12 (stereo partly drawn) [Example 5-2],31300,–
CCCC(OC(=O)OC1CCCCC1)OC(=O)C1=C(CSc2nnnn2CCN(C)C)CS[C@@H]2[C@H](NC(=O)Cc3csc(N)n3)C(=O)N12 (stereo partly drawn) [Example 5-7],36300,–
"CN(C)CCn1nnnc1SCC1=C(C(=O)O)N2C(=O)[C@@H](NC(=O)Cc3csc(N)n3)[C@H]2SC1 [compound[II], 7β-[2-(2-aminothiazol-4-yl)acetamido]-3-[[[1-(2-dimethylaminoethyl)-1H-tetrazol-5-yl]thio]methyl]-ceph-3-em-4-carboxylic acid]",–,antibacterial activity (proteus morganii): potent antibacterial activity; antibacterial activity (Escherichia coli): potent antibacterial activity; antibacterial activity (Klebsiella pneumoniae): potent antibacterial activity; Bioavailability [2]: 100%; antibacterial activity (Proteus mirabilis): potent antibacterial activity; antibacterial activity (Staphylococcus aureus): potent antibacterial activity; antibacterial activity (Proteus vulgaris): potent antibacterial activity
